Data as given in patent publication US20260232662A1, “MIR-124 INDUCER, AND PREPARATION METHOD THEREFOR AND USE THEREOF” (NANJING SYNNOCARE PHARMACEUTICAL TECHNOLOGY CO., LTD., priority 2023, published 2026).

Key:
[1] = In vivo pharmacokinetic evaluation in mice; settings: mouse; male ICR mice, po, 10 mg/kg, plasma
Method: The compound was administered orally (p.o.) at a dose of 10 mg/kg. The test formulation was prepared at a final concentration of 0.4 mg/mL in 5% DMSO+45% PEG400+50% aqueous solution or suspension. Male ICR mice (9 per group) were sampled at three discontinuous time points (n=3 mice/time point). Approximately 80 μL of blood was collected via orbital or cardiac puncture at 5 min, 15 min, 30 min, 1 h, 2 h, 4 h, 8 h, and 24 h post-dose. All whole blood samples were collected in EDTA K2-containing tubes. After centrifugation at 4° C. (4000 rpm, 10 min), plasma was collected and stored below −40° C. for subsequent analysis. Compound concentrations in plasma were determined by liquid chromatography-tandem mass spectrometry (LC-MS/MS), and pharmacokinetic parameters were derived from the plasma concentration-time curves.

miR-124 = assay: Induction of miR-124 expression in PBMC cells (qPCR); type: cell-based; settings: Homo sapiens, 72 h, 0.1 μM compound, human PBMCs stimulated with PMA/ionomycin, miR-191 reference gene, read-out: miR-124 expression, Fold change vs DMSO
Outline: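 Human PBMCs (3.0*10^6 cells/well) were stimulated with PMA 10 ng/mL plus ionomycin 200 ng/mL for 48 h, then given compound at 0.1 μM final for 72 h. miR-124 was measured by RT-qPCR against miR-191 as reference gene. Expression is relative to DMSO control.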

AUC(0-t) [1] | Cmax [1] | Tmax [1] | half-life [1] | Structure (SMILES) | fold induction at 0.1 µM (miR-124)
1880 ng·h/mL | 269 ng/mL | 2 h | 2.47 h | FC(F)(F)Oc1ccc(NC2=Nc3cccc(Cl)c3N3CCN=C23)cc1 [Compound B118, 9-chloro-N-(4-(trifluoromethoxy)phenyl)-1,2-dihydroimidazo[1,2-a] quinoxalin-4-amine] | 28.8
933 ng·h/mL | 207 ng/mL | 4 h | 3.45 h | FC(F)(F)Oc1ccc(Nc2nc3c(Cl)cccc3n3ccnc23)cc1 [Compound 2] | 16.5
879 ng·h/mL | 243 ng/mL | 0.5 h | 2.17 h | FC(F)(F)c1ccc(NC2=Nc3c(Cl)cccc3N3CCN=C23)cc1 [Compound 68] | 29.5
1950 ng·h/mL | 378 ng/mL | 1 h | 2.12 h | FC(F)(F)c1ccc(NC2=Nc3cccc(Cl)c3N3CCN=C23)cc1 [Compound B121, 9-chloro-N-(4-(trifluoromethyl)phenyl)-1,2-dihydroimidazo[1,2-a] quinoxalin-4-amine] | 29.5
1370 ng·h/mL | 274 ng/mL | 4 h | 3.41 h | Fc1cc(NC2=Nc3c(Cl)cccc3N3CCN=C23)ccc1OC(F)(F)F [Compound 71] | 25.3
1840 ng·h/mL | 365 ng/mL | 2 h | 3.78 h | Fc1cc(Nc2nc3c(Cl)cccc3n3ccnc23)ccc1OC(F)(F)F [Compound 18] | 17.6
1430 ng·h/mL | 357 ng/mL | 0.5 h | 2.32 h | FC1(F)Oc2ccc(NC3=Nc4c(Cl)cccc4N4CCN=C34)cc2O1 [Compound 70] | 16.4
2030 ng·h/mL | 403 ng/mL | 4 h | 3.29 h | FC(F)(F)c1ccc(NC2=Nc3c(Cl)cccc3N3CCN=C23)cc1Cl [Compound 67] | 28.8
3590 ng·h/mL | 450 ng/mL | 1 h | 2.58 h | FC(F)(F)Oc1ccc(Nc2nc3cccc(Cl)c3n3ccnc23)cc1 [Compound B1, 9-chloro-N-(4-(trifluoromethoxy)-phenyl)imidazolo [1,2-a]quinoxalin-4-amine] | 43.8
1330 ng·h/mL | 346 ng/mL | 0.5 h | 1.96 h | FC(F)(F)c1ccc(Nc2nc3cccc(Cl)c3n3ccnc23)cc1Cl [Compound B54, 9-chloro-N-(3-chloro-4-(trifluoromethyl)phenyl)imidazolo [1,2-a]quinoxalin-4-amine] | 34.1
– | – | – | – | FC(F)(F)c1ccc(Nc2nc3c(Cl)cccc3n3ccnc23)cc1Cl [Compound 29] | 9.32
– | – | – | – | Fc1cc(Nc2nc3ccc(Cl)cc3n3ccnc23)ccc1OC(F)(F)F [Compound B101, 8-chloro-N-(3-fluoro-4-(trifluoromethoxy)phenyl) imidazolo[1,2-a] quinoxalin-4-amine] | 24.7
– | – | – | – | Fc1cc(Nc2nc3c(F)cc(Cl)cc3n3ccnc23)ccc1OC(F)(F)F [Compound 56] | 17.2
– | – | – | – | Fc1cc2nc(Nc3ccc(OC(F)(F)F)cc3)c3nccn3c2cc1Cl [Compound B25, 8-chloro-7-fluoro-N-(4-(trifluoromethoxy)phenyl)imidazolo [1,2-a]quinoxalin-4-amine] | 23.4
– | – | – | – | Fc1cc(Nc2nc3c(Br)cccc3n3ccnc23)ccc1OC(F)(F)F [Compound 49] | 19.5
– | – | – | – | FC(F)(F)Oc1ccc(Nc2nc3ccc(Cl)cc3n3ccnc23)cc1Cl [Compound B102, 8-chloro-N-(3-chloro-4-(trifluoromethoxy)phenyl) imidazolo[1,2-a] quinoxalin-4-amine] | 27.3
– | – | – | – | Fc1cccc2c1N=C(Nc1ccc(C(F)(F)F)cc1)C1=NCCN12 [Compound 74] | 31.6
– | – | – | – | Fc1cccc2c1nc(Nc1ccc(OC(F)(F)F)c(Cl)c1)c1nccn12 [Compound 44] | 17.5

AUC(0-t) [1] | Cmax [1] | Tmax [1] | half-life [1] | Structure (SMILES) | fold induction at 0.1 µM (miR-124)
– | – | – | – | Fc1cc(Nc2nc3cccc(F)c3n3ccnc23)ccc1OC(F)(F)F [Compound B76, 9-fluoro-N-(3-fluoro-4-(trifluoromethoxy)phenyl) imidazolo[1,2-a] quinoxalin-4-amine] | 18.5
– | – | – | – | Fc1cccc2c1nc(Nc1ccc(C(F)(F)F)c(Cl)c1)c1nccn12 [Compound 47] | 9.86
– | – | – | – | FC(F)(F)Oc1ccc(Nc2nc3cc(Cl)cc(Cl)c3n3ccnc23)cc1 [Compound B21, 7,9-dichloro-N-(4-(trifluoromethoxy)phenyl)imidazolo [1,2-a]quinoxalin-4-amine] | 35.2
3260 ng·h/mL | 375 ng/mL | 2 h | 3.36 h | FC(F)(F)c1ccc(NC2=Nc3cc(Cl)cc(Cl)c3N3CCN=C23)cc1 [Compound B139, 7,9-dichloro-N-(4-(trifluoromethyl)phenyl)-1,2-dihydroimidazo[1,2-a] quinoxalin-4-amine] | 40.6
– | – | – | – | FC(F)(F)c1ccc(Nc2nc3cc(Cl)ccc3n3ccnc23)cc1 [Compound B109, 7-chloro-N-(4-(trifluoromethyl)phenyl) imidazolo[1,2-a] quinoxalin-4-amine] | 26.4
– | – | – | – | FC(F)(F)Oc1ccc(NC2=Nc3ccc(Cl)cc3N3CCN=C23)cc1 [Compound B142, 8-chloro-N-(4-(trifluoromethoxy)phenyl)-1,2-dihydroimidazo[1,2-a] quinoxalin-4-amine] | 25.6
– | – | – | – | FS(F)(F)(F)(F)c1ccc(Nc2nc3c(Cl)cccc3n3ccnc23)cc1 [Compound 22] | 15.3
– | – | – | – | FC(F)(F)Oc1ccc(NC2=Nc3c(Cl)cccc3N3CCN=C23)cc1Cl [Compound 72] | 19
– | – | – | – | FC(F)(F)c1ccc(Nc2nc3cc(Cl)ccc3n3ccnc23)cc1Cl [Compound B111, 7-chloro-N-(3-chloro-4-(trifluoromethyl)phenyl) imidazolo[1,2-a] quinoxalin-4-amine] | 22.5
– | – | – | – | FC(F)(F)Oc1ccc(NC2=Nc3c(Cl)cc(Cl)cc3N3CCN=C23)cc1Cl [Compound 87] | 15.8
– | – | – | – | FC(F)(F)Oc1ccc(Nc2nc3cccc(Cl)c3n3ccnc23)cc1Cl [Compound B56, 9-chloro-N-(3-chloro-4-(trifluoromethoxy)phenyl)imidazolo [1,2-a]quinoxalin-4-amine] | 40.7
– | – | – | – | Fc1cc(Cl)cc2c1N1CCN=C1C(Nc1ccc(OC(F)(F)F)c(Cl)c1)=N2 [Compound B132, 7-chloro-N-(3-chloro-4-(trifluoromethoxy)phenyl)-9-fluoro-1,2-dihydroimidazo[1,2-a] quinoxalin-4-amine] | 27.6
– | – | – | – | FC1(F)Oc2ccc(Nc3nc4c(Cl)cccc4n4ccnc34)cc2O1 [Compound 17] | 19
– | – | – | – | Fc1cc(Nc2nc3cccc(F)c3n3ccnc23)ccc1C(F)(F)F [Compound B79, 9-fluoro-N-(3-fluoro-4-(trifluoromethyl)phenyl) imidazolo[1,2-a] quinoxalin-4-amine] | 22.3
– | – | – | – | FC(F)(F)Oc1ccc(NC2=Nc3c(Br)cccc3N3CCN=C23)cc1 [Compound 79] | 17.8
– | – | – | – | FC1(F)Oc2ccc(Nc3nc4cc(Cl)ccc4n4ccnc34)cc2O1 [Compound B106, 7-chloro-N-(2,2-difluorobenzo[d] [1,3]dihydroxy-5-yl) imidazolo[1,2-a] quinoxalin-4-amine] | 16.3
2850 ng·h/mL | 271 ng/mL | 2 h | 3.26 h | FC(F)(F)Oc1ccc(Nc2nc3ccc(Cl)cc3n3ccnc23)cc1 [Compound B4, 8-chloro-N-(4-(trifluoromethoxy)phenyl)imidazolo [1,2-a]quinoxalin-4-amine] | 33.1
– | – | – | – | FC(F)(F)Oc1ccc(Nc2nc3c(Cl)cc(Cl)cc3n3ccnc23)cc1 [Compound 61] | 12.1
